{"source": "patent US11446223B2", "about": "“Anti-aging composition” (NEOPHARM CO., LTD., priority 2016, dated 2022)", "format_in_all_cases": "cell-based", "key": {"human fibroblasts": {"test_system": "human fibroblasts", "assay": "Type-1 collagen synthesis in human fibroblasts (PICP EIA kit)", "details": "24 hours", "experimental": "N-(1,3-dihydroxy propan-2-yl)-2-ethylhexanamide was added to a culture medium of human fibroblasts (DMEM medium, 10% fetal bovine serum, 1% antibiotics) to confirm the effect of accelerating type-1 collagen synthesis in a cell level. The measurement of the synthesized collagen was qualified using a procollagen type I C-peptide enzyme immunoassay kit (PICP EIA kit).\nThe human fibroblast culture medium was used to aliquot the human-derived fibroblasts (human fibroblasts) into 6 wells at 2×10^5 cell/well. After cell adhesion was confirmed, the culture medium was treated with 2 ml of N-(1,3-dihydroxy propan-2-yl)-2-ethylhexanamide as an effective component (anti-aging composition) per each well, at a concentration of 20 uM. After the culture medium was cultured in an incubator under a condition of 37° C. and 5% CO2 for 24 hours, type-1 collagen which is related to a wrinkle forming factor was measured in a cell extract. […]\nThe effect of accelerating type-1 collagen synthesis was confirmed in the same manner as in Example 1, except that the effective component was not used (a negative control). In addition, type-1 collagen synthesis ability relative to the negative control was calculated as a ratio, and illustrated as a rate of increase (see Table 1 and FIG. 1)."}, "[1]": {"test_system": "human-derived fibroblasts", "assay": "Toxicity / cell proliferation in human-derived fibroblasts", "details": "20 uM"}, "[2]": {"test_system": "Artificial skin (EpiDermFT)", "assay": "Collagen synthesis in artificial skin, Masson's Trichrome staining", "details": "100 μl at 1% on artificial skin surface, 24 hours, versus PBS (Comparative Example 2)", "experimental": "Artificial skin (EpiDermFT™ from MatTek, Ashland, USA) was purchased, and stabilized in an exclusive medium (EFT-400) for 18 hours. On the surface of the artificial skin, 100 μl of N-(1,3-dihydroxy propan-2-yl)-2-ethylhexanamide as an effective component (anti-aging composition) at a concentration of 1% was applied. After 24 hours, the artificial skin tissue was immobilized with 10% formaldehyde, embedded with paraffin, and sliced at 5 μm to obtain a sliced tissue which was used for confirming the effect of accelerating collagen synthesis (see FIG. 2).\nThe artificial skin was stabilized in the same manner as in Example 2, and coated with only 100 μl of PBS without an effective component. After 24 hours, the artificial skin tissue was immobilized with 10% formaldehyde, embedded with paraffin, and sliced at 5 μm to obtain a sliced tissue which was used for confirming the effect of accelerating collagen synthesis."}}}
{"smiles": "CCCCC(CC)C(=O)NC(CO)CO", "note": "(stereo not shown) [Example 1, N-(1,3-dihydroxypropan-2-yl)-2-ethylhexanamide]", "values": [{"measurement": "Type-1 collagen concentration (20 uM)", "setting": "human fibroblasts; 20 uM compound, cell extract, human fibroblasts", "value": 0.017}, {"measurement": "Rate of increase (%)", "setting": "human fibroblasts; type-1 collagen relative to negative control (Comparative Example 1), 20 uM", "value": 242, "unit": "%"}, {"measurement": "toxicity", "setting": "[1]", "value": "not toxic"}, {"measurement": "effect of accelerating collagen synthesis (Masson's Trichrome staining)", "setting": "[2]", "value": "accelerated collagen synthesis much more"}]}
